Experimental findings from US20260209249A1, “NOVEL TRICYCLIC COMPOUND AS KRAS G12D INHIBITOR, AND USE THEREOF” (SK Biopharmaceuticals Co., priority 2022, published 2026) are described below.

SMILES strings stand for the structures.

Test [1] has as its target T1, GDP-KRAS G12D mutant protein (Homo sapiens, UniProt P01116, G12D).
T1 construct: purchased Daegu Gyeongbuk Medical Innovation Foundation (DGMIF), made to order
In words: Differential scanning fluorimetry (DSF) binding affinity to GDP-KRAS G12D mutant protein. The settings on record: DSF thermal shift, 10 μM compound, 4 μg KRAS protein. As to the method:
(§1) Test Example 1: Measurement of Binding Affinity to KRAS G12D Mutant Protein The binding affinities of the compounds according to one embodiment of the present application to the KRAS G12D mutant protein were evaluated using differential scanning fluorimetry (DSF). Differential scanning fluorimetry (DSF) is a method used to study the stability of a protein upon binding to a compound. The experiment can be performed using a real-time PCR (RT-PCR) instrument, and is commonly employed as a screening technique for small-molecule compounds targeting specific proteins. As the temperature increases, folded proteins begin to unfold, during which a hydrophobic dye such as SYPRO Orange binds to the exposed hydrophobic regions of the protein, resulting in a measurable increase in fluorescence intensity (maximum absorption at 470 nm and maximum emission at 570 nm). Protein-compound binding is determined by the difference in the melting temperature (Tm) of the protein in the presence of the compound compared to the Tm in the absence of the compound, expressed as ΔTm. The binding affinity to the KRAS G12D mutant protein was measured using the Protein Thermal Shift Dye kit (#4461146, Applied Biosystems). The GDP-KRAS G12D mutant protein and GppNHp-KRAS G12D mutant protein used in the experiment were recombinant proteins synthesized by the Daegu Gyeongbuk Medical Innovation Foundation (DGMIF) upon request. The analysis of binding between the compound and the KRAS G12D mutant protein was performed according to the following reaction recipe: each test sample contained 4 μg of KRAS protein, 10 μM of the compound, and 2×SYPRO Orange dye. For the GDP-KRAS G12D protein samples, the buffer provided with the Protein Thermal Shift Dye kit was used, while for the GppNHp-KRAS G12D protein samples, 50 mM HEPES (pH 7.5) buffer was used. For the protein-compound binding reaction, the compound was added to the KRAS G12D mutant protein and reacted at room temperature for 30 minutes, followed by the addition of 2×SYPRO Orange dye. The temperature was increased to 25° C.-99° C. (0.05° C./s) using QuantStudiol RT-PCR instrument (Applied Biosystems), and fluorescence was measured using a ROX reporter with filters of 580±10 nm (excitation)/623±14 nm (emission). The measurements obtained at a compound concentration of 10 μM were analyzed using the Protein Thermal Shift Software program (version v1.4, Thermo Fisher Scientific), and the ΔTm (° C.) values, which indicate the binding affinity of the compound to the KRAS G12D mutant protein, were calculated. The DSF measurement results for the compounds according to one embodiment of the present application with respect to the KRAS G12D mutant protein are shown in Table 2.

Test [2] deals with T2, GppNHp-KRAS G12D mutant protein (Homo sapiens, UniProt P01116, G12D).
T2 construct: purchased Daegu Gyeongbuk Medical Innovation Foundation (DGMIF), made to order
In words: Differential scanning fluorimetry (DSF) binding affinity to GppNHp-KRAS G12D mutant protein. As to conditions: DSF thermal shift, 10 μM compound, 4 μg KRAS protein, 50 mM HEPES (pH 7.5). As to the method: as §1

As to `Cc1cc2c(o1)c(-c1nc(N)ccc1C(F)(F)F)c(F)c1nc(OC[C@@]34CCCN3C[C@H](F)C4)nc(N3C[C@H]4CC[C@@H](C3)N4)c12` [Example 50, 6-(1-((1R,5S)-3,8-diazabicyclo[3.2.1]octan-3-yl)-5-fluoro-3-(((2R,7aS)-2-fluorotetrahydro-1H-pyrrolizin-7a(5H)-yl)methoxy)-8-methylfuro[3,2-f]quinazolin-6-yl)-5-(trifluoromethyl)pyridin-2-amine], in test [1], the “GDP-KRAS G12D (ΔTmD, ° C.)” value is 0.58 °C. For the same molecule, in test [2], the “GppNHp-KRAS G12D (ΔTmD, ° C.)” value is −0.31 °C.

On to `Cc1cc2c(o1)c(-c1c(Cl)c(C)cc3[nH]ncc13)c(F)c1nc(OC[C@@]34CCCN3C[C@H](F)C4)nc(N3C[C@H]4CC[C@@H](C3)N4)c12` [Example 51, 1-((1 R,5S)-3,8-diazabicyclo[3.2.1]octan-3-yl)-6-(5-chloro-6-methyl-1H-indazol-4-yl)-5-fluoro-3-(((2R,7aS)-2-fluorotetrahydro-1H-pyrrolizin-7a(5H)-yl)methoxy)-8-methylfuro[3,2-f]quinazoline], for which, in test [1], the “GDP-KRAS G12D (ΔTmD, ° C.)” value was determined as 4.73 °C. In test [2], the “GppNHp-KRAS G12D (ΔTmD, ° C.)” value worked out at 1.32 °C.

Regarding `Cc1cc2c(o1)c(-c1cccc3sc(N)nc13)c(F)c1nc(OC[C@@]34CCCN3C[C@H](F)C4)nc(N3CC4CCC(C3)N4)c12` [Example 54, 4-(1-((1R,5S)-3,8-diazabicyclo[3.2.1]octan-3-yl)-5-fluoro-3-(((2R,7aS)-2-fluorotetrahydro-1H-pyrrolizin-7a(5H)-yl)methoxy)-8-methylfuro[3,2-n]quinazolin-6-yl)benzo[d]thiazol-2-amine], the “GDP-KRAS G12D (ΔTmD, ° C.)” value in test [1] stood at 2.95 °C. The “GppNHp-KRAS G12D (ΔTmD, ° C.)” value in test [2] was 1.61 °C.

On to `Cc1cc2c(o1)c(-c1ccc(F)c3sc(N)nc13)c(F)c1nc(OC[C@@]34CCCN3C[C@H](F)C4)nc(N3C[C@H]4CC[C@@H](C3)N4)c12` [Example 55, 4-(1-((1R,5S)-3,8-diazabicyclo[3.2.1]octan-3-yl)-5-fluoro-3-(((2R,7aS)-2-fluorotetrahydro-1H-pyrrolizin-7a(5H)-yl)methoxy)-8-methylfuro[3,2-n]quinazolin-6-yl)-7-fluorobenzo[d]thiazol-2-amine], for which the “GDP-KRAS G12D (ΔTmD, ° C.)” value in test [1] was found to be 3.24 °C. Further, the “GppNHp-KRAS G12D (ΔTmD, ° C.)” value in test [2] was determined as 1.91 °C.

For `C#Cc1c(F)ccc2cc(N)cc(-c3c(F)c4nc(OCC5(CN6CCC7(CC6)CC7(F)F)CC5)nc(N5C[C@H]6CC[C@@H](C5)N6)c4c4cc(C)oc34)c12` [Example 58, 4-(1-((1R,5S)-3,8-diazabicyclo[3.2.1]octan-3-yl)-3-((1-((1,1-difluoro-6-azaspiro[2.5]octan-6-yl)methyl)cyclopropyl)methoxy)-5-fluoro-8-methylfuro[3,2-f]quinazolin-6-yl)-5-ethynyl-6-fluoronaphthalen-2-amine], in test [1], the “GDP-KRAS G12D (ΔTmD, ° C.)” value was 6.81 °C. For the same molecule, in test [2], the “GppNHp-KRAS G12D (ΔTmD, ° C.)” value is 1.92 °C.

On to `Cc1cc2c(o1)c(-c1nc(N)cc(C)c1C(F)(F)F)c(F)c1nc(OC[C@@]34CCCN3C[C@H](F)C4)nc(N3C[C@H]4CC[C@@H](C3)N4)c12` [Example 60, 6-(1-((1R,5S)-3,8-diazabicyclo[3.2.1]octan-3-yl)-5-fluoro-3-(((2R,7aS)-2-fluorotetrahydro-1H-pyrrolizin-7a(5H)-yl)methoxy)-8-methylfuro[3,2-n]quinazolin-6-yl)-4-methyl-5-(trifluoromethyl)pyridin-2-amine], for which the “GDP-KRAS G12D (ΔTmD, ° C.)” value in test [1] was found to be 0.87 °C. For the same molecule, the “GppNHp-KRAS G12D (ΔTmD, ° C.)” value in test [2] is 1.61 °C.

For the molecule `C#Cc1c(F)ccc2cc(O)cc(-c3c(F)c4nc(OC[C@@]56CCCN5CC(=C(F)F)C6)nc(N5CC6CCC(C5)N6)c4c4cc(C)oc34)c12` [Example 66, 4-(1-((1R,5S)-3,8-diazabicyclo[3.2.1]octan-3-yl)-3-(((S)-2-(difluoromethylene)tetrahydro-1H-pyrrolizin-7a(5H)-yl)methoxy)-5-fluoro-8-methylfuro[3,2-n]quinazolin-6-yl)-5-ethynyl-6-fluoronaphthalen-2-ol], the “GDP-KRAS G12D (ΔTmD, ° C.)” value in test [1] turned out to be 14.49 °C. The “GppNHp-KRAS G12D (ΔTmD, ° C.)” value in test [2] stood at 9.45 °C.

With `C#Cc1c(F)ccc2cc(O)cc(-c3c(F)c4nc(N5CC(N(C)C)C5)nc(N5C[C@H]6CC[C@@H](C5)N6)c4c4cn(C)nc34)c12` [Example 72, 4-(9-((1R,5S)-3,8-diazabicyclo[3.2.1]octan-3-yl)-7-(3-(dimethylamino)azetidin-1-yl)-5-fluoro-2-methyl-2H-pyrazolo[4,3-n]quinazolin-4-yl)-5-ethynyl-6-fluoronaphthalen-2-ol], the “GDP-KRAS G12D (ΔTmD, ° C.)” value in test [1] is −0.29 °C. Further, the “GppNHp-KRAS G12D (ΔTmD, ° C.)” value in test [2] was 0.00 °C.

For `C#Cc1c(F)ccc2cc(N)cc(-c3cc4nc(OCC5(CN6CCC7(CC6)CC7(F)F)CC5)nc(N5C[C@H]6CC[C@@H](C5)N6)c4c4cn(C)nc34)c12` [Example 76, 4-(9-((1 R,5S)-3,8-diazabicyclo[3.2.1]octan-3-yl)-7-((1-((1,1-difluoro-6-azaspiro[2.5]octan-6-yl)methyl)cyclopropyl)methoxy)-2-methyl-2H-pyrazolo[4,3-f]quinazolin-4-yl)-5-ethynyl-6-fluoronaphthalen-2-amine], the “GDP-KRAS G12D (ΔTmD, ° C.)” value in test [1] turned out to be 5.17 °C. Besides, the “GppNHp-KRAS G12D (ΔTmD, ° C.)” value in test [2] worked out at 1.47 °C.

Consider `C#Cc1c(F)ccc2cccc(-c3cc4nc(OC[C@@]56CCCN5C/C(=C\F)C6)nc(N5C[C@H]6CC[C@@H](C5)N6)c4c4cn(C)nc34)c12` [Example 78, 9-((1 R,5S)-3,8-diazabicyclo[3.2.1]octan-3-yl)-4-(8-ethynyl-7-fluoronaphthalen-1-yl)-7-(((S,Z)-2-(fluoromethylene)tetrahydro-1H-pyrrolizin-7a(5H)-yl)methoxy)-2-methyl-2H-pyrazolo[4,3-n]quinazoline], for which the “GDP-KRAS G12D (ΔTmD, ° C.)” value in test [1] amounted to 5.46 °C. The “GppNHp-KRAS G12D (ΔTmD, ° C.)” value in test [2] turned out to be 1.17 °C.

For the molecule `C#Cc1c(F)ccc2cccc(-c3c(F)c4nc(OC[C@@]56CCCN5C[C@H](F)C6)nc(N5C[C@H]6CC[C@@H](C5)N6)c4c4cn(C)nc34)c12` [Example 82, 9-((1 R,5S)-3,8-diazabicyclo[3.2.1]octan-3-yl)-4-(8-ethynyl-7-fluoronaphthalen-1-yl)-5-fluoro-7-(((2R,7aS)-2-fluorotetrahydro-1H-pyrrolizin-7a(5H)-yl)methoxy)-2-methyl-2H-pyrazolo[4,3-n]quinazoline], the “GDP-KRAS G12D (ΔTmD, ° C.)” value in test [1] is 7.52 °C. For the same molecule, in test [2], the “GppNHp-KRAS G12D (ΔTmD, ° C.)” value came out at 3.26 °C.

Consider `Cn1cc2c(n1)c(-c1cc(O)cc3ccc(F)c(F)c13)cc1nc(OC[C@@]34CCCN3C/C(=C\F)C4)nc(N3C[C@H]4CC[C@@H](C3)N4)c12` [Example 84, 4-(9-((1R,5S)-3,8-diazabicyclo[3.2.1]octan-3-yl)-7-(((S,Z)-2-(fluoromethylene)tetrahydro-1H-pyrrolizin-7a(5H)-yl)methoxy)-2-methyl-2H-pyrazolo[4,3-f]quinazolin-4-yl)-5,6-difluoronaphthalen-2-ol], for which the “GDP-KRAS G12D (ΔTmD, ° C.)” value in test [1] is 8.13 °C. In test [2], the “GppNHp-KRAS G12D (ΔTmD, ° C.)” value is 4.13 °C.

As for `C#Cc1c(F)ccc2cc(O)cc(-c3c(F)c4nc(OC[C@@]56CCCN5CC(=C(F)F)C6)nc(N5CC6CCC(C5)N6)c4c4cn(C)nc34)c12` [Example 91, 4-(9-((1R,5S)-3,8-diazabicyclo[3.2.1]octan-3-yl)-7-(((S)-2-(difluoromethylene)tetrahydro-1H-pyrrolizin-7a(5H)-yl)methoxy)-5-fluoro-2-methyl-2H-pyrazolo[4,3-n]quinazolin-4-yl)-5-ethynyl-6-fluoronaphthalen-2-ol], in test [1], the “GDP-KRAS G12D (ΔTmD, ° C.)” value was −0.16 °C. Moreover, the “GppNHp-KRAS G12D (ΔTmD, ° C.)” value in test [2] was −0.45 °C.
